According to US20190240236A1, “ORAL TESTOSTERONE UNDECANOATE THERAPY” (Lipocine Inc., priority 2016, published 2019):

Experiment: Clinic Study of Testosterone Therapy for hypogonadal males: serum T Cavg and Cmax after oral TU fixed dose regimens
Format: in vivo, human
Conditions: for Cavg > 300 ng/dL ≥75% patients / Cavg > 300 ng/dL ≥80% patients: with food (at least 10 g fat)
Procedure: Fixed Dose Dosing Regimen Examples Based on Study Described Below for Estimated or Actual Cavg (Administered with Food with at Least 10 g of Fat)
The dosage form from Example B of Composition 4 with dosing regimen (Regimen #9-16) of dosing category BID-equal dose with daily dose range 150-600 mg were used for a Clinic Study of Testosterone Therapy for hypogonadal males.
The clinical study was a randomized double-blind, placebo-controlled dose escalating study of the safety, efficacy, tolerability, and pharmacokinetics of testosterone therapy in hypogonadal males. This clinic study was a single and multiple, ascending-dose study that was designed to determine the optimal starting, titration (if appropriate), or single fixed dose for safety and efficacy targeted by the US FDA. The study also verified the time for testosterone levels to reach steady state and identified a suitable fixed dose dosing regimen that satisfies an unmet need for safety and efficacy for oral TT.
This study was carried out with conditions of a single-center, randomized, double-blind, placebo-controlled, ascending multiple-dose, and serial-group in adult hypogonadal male subjects. The objectives of this study were: • a) To assess the safety, efficacy, and tolerability of escalating single and multiple oral doses of TU dosage forms in hypogonadal males • b) To determine the pharmacokinetics (PK) of testosterone (T), DHT, TU, DHTU, and estradiol (E2) after single and multiple oral doses of TU dosage forms in hypogonadal males • C) To identify a fixed dose dosing regimen satisfying US FDA targets, without needing to titrate, for restoring serum T levels in hypogonadal males to the normal T range.
The dosing regimen for this clinical study ranged from 150 mg daily dose (75 mg BID dose) to 600 mg daily dose (300 mg BID dose). Observed pharmacokinetic parameters (T, DHT, TU, DHTU, and E2) after single and multiple oral doses of TU dosage forms in the patients were recorded in connection with each daily dose listed in the report.
The overall analyzed results of this clinical study were plotted according to % of patients for safety (Cmax<1,500 ng/dL) and efficacy (Cavg>300 ng/dL) with a variety of dosing regimens. Note that only doses that were multiples of 75 mg were tested in the clinical study, the results predicted for the other doses are estimated from these values.

[1] = Daily dose 410 mg, each BID dose 205 mg
[2] = Daily dose 420 mg, each BID dose 210 mg
[3] = Daily dose 430 mg, each BID dose 215 mg
[4] = Daily dose 438 mg, each BID dose 219 mg
[5] = Daily dose 450 mg, each BID dose 225 mg
[6] = Daily dose 460 mg, each BID dose 230 mg
[7] = Daily dose 474 mg, each BID dose 237 mg
[8] = Daily dose 480 mg, each BID dose 240 mg
[9] = Daily dose 490 mg, each BID dose 245 mg
[10] = Daily dose 500 mg, each BID dose 250 mg
[11] = Daily dose 518 mg, each BID dose 259 mg
[12] = Regimen 1, TID-equal dose, TU 75/75/75 mg
[13] = Regimen 2, TID-equal dose, TU 112/112/112 mg
[14] = Regimen 3, TID-equal dose, TU 125/125/125 mg
[15] = Regimen 4, TID-equal dose, TU 150/150/150 mg
[16] = Regimen 5, TID-equal dose, TU 188/188/188 mg
[17] = Regimen 6, TID-equal dose, TU 225/225/225 mg
[18] = Regimen 7, TID-equal dose, TU 237/237/237 mg
[19] = Regimen 8, TID-equal dose, TU 250/250/250 mg
[20] = Regimen 9, BID-equal dose (AM/PM), TU 75/75 mg
[21] = Regimen 10, BID-equal dose (AM/PM), TU 150/150 mg
[22] = Regimen 11, BID-equal dose (AM/PM), TU 215/215 mg
[23] = Regimen 12, BID-equal dose (AM/PM), TU 225/225 mg
[24] = Regimen 13, BID-equal dose (AM/PM), TU 237/237 mg
[25] = Regimen 14, BID-equal dose (AM/PM), TU 250/250 mg
[26] = Regimen 15, BID-equal dose (AM/PM), TU 265/265 mg
[27] = Regimen 16, BID-equal dose (AM/PM), TU 300/300 mg
[28] = Regimen 17, BID-different dose (AM/PM), TU 75/225 mg
[29] = Regimen 18, BID-different dose (AM/PM), TU 75/300 mg
[30] = Regimen 19, BID-different dose (AM/PM), TU 150/225 mg
[31] = Regimen 20, BID-different dose (AM/PM), TU 225/150 mg
[32] = Regimen 21, BID-different dose (AM/PM), TU 225/300 mg
[33] = Regimen 22, BID-different dose (AM/PM), TU 300/75 mg
[34] = Regimen 23, BID-different dose (AM/PM), TU 300/150 mg
[35] = Regimen 24, BID-different dose (AM/PM), TU 300/225 mg

CCCCCCCCCCC(=O)O[C@H]1CC[C@H]2[C@@H]3CCC4=CC(=O)CC[C@]4(C)[C@H]3CC[C@]12C [TU, testosterone undecanoate]
% with Cavg/day > 300 ng/dL [1]: 71.5%
% with Cmax/dose < 1,500 ng/dL [1]: 93.7%
% with Cavg/day > 300 ng/dL [2]: 74.9%
% with Cmax/dose < 1,500 ng/dL [2]: 92.8%
% with Cavg/day > 300 ng/dL [3]: 77.6%
% with Cmax/dose < 1,500 ng/dL [3]: 92.1%
% with Cavg/day > 300 ng/dL [4]: 80.0%
% with Cmax/dose < 1,500 ng/dL [4]: 91.2%
% with Cavg/day > 300 ng/dL [5]: 83.5%
% with Cmax/dose < 1,500 ng/dL [5]: 89.9%
% with Cavg/day > 300 ng/dL [6]: 85.6%
% with Cmax/dose < 1,500 ng/dL [6]: 88.9%
% with Cavg/day > 300 ng/dL [7]: 88.9%
% with Cmax/dose < 1,500 ng/dL [7]: 86.8%
% with Cavg/day > 300 ng/dL [8]: 90.0%
% with Cmax/dose < 1,500 ng/dL [8]: 86.1%
% with Cavg/day > 300 ng/dL [9]: 91.7%
% with Cmax/dose < 1,500 ng/dL [9]: 84.6%
% with Cavg/day > 300 ng/dL [10]: 93.0%
% with Cmax/dose < 1,500 ng/dL [10]: 83.2%
% with Cavg/day > 300 ng/dL [11]: 95.2%
% with Cmax/dose < 1,500 ng/dL [11]: 80.0%
Cavg > 300 ng/dL ≥75% patients [12]: No
Cavg > 300 ng/dL ≥80% patients [12]: No
Cavg > 300 ng/dL ≥75% patients [13]: No
Cavg > 300 ng/dL ≥80% patients [13]: No
Cavg > 300 ng/dL ≥75% patients [14]: No
Cavg > 300 ng/dL ≥80% patients [14]: No
Cavg > 300 ng/dL ≥75% patients [15]: Yes
Cavg > 300 ng/dL ≥80% patients [15]: Yes
Cavg > 300 ng/dL ≥75% patients [16]: Yes
Cavg > 300 ng/dL ≥80% patients [16]: Yes
Cavg > 300 ng/dL ≥75% patients [17]: Yes
Cavg > 300 ng/dL ≥80% patients [17]: Yes
Cavg > 300 ng/dL ≥75% patients [18]: Yes
Cavg > 300 ng/dL ≥80% patients [18]: Yes
Cavg > 300 ng/dL ≥75% patients [19]: Yes
Cavg > 300 ng/dL ≥80% patients [19]: Yes
Cavg > 300 ng/dL ≥75% patients [20]: No
Cavg > 300 ng/dL ≥80% patients [20]: No
Cavg > 300 ng/dL ≥75% patients [21]: No
Cavg > 300 ng/dL ≥80% patients [21]: No
Cavg > 300 ng/dL ≥75% patients [22]: Yes
Cavg > 300 ng/dL ≥80% patients [22]: No
Cavg > 300 ng/dL ≥75% patients [23]: Yes
Cavg > 300 ng/dL ≥80% patients [23]: Yes
Cavg > 300 ng/dL ≥75% patients [24]: Yes
Cavg > 300 ng/dL ≥80% patients [24]: Yes
Cavg > 300 ng/dL ≥75% patients [25]: Yes
Cavg > 300 ng/dL ≥80% patients [25]: Yes
Cavg > 300 ng/dL ≥75% patients [26]: Yes
Cavg > 300 ng/dL ≥80% patients [26]: Yes
Cavg > 300 ng/dL ≥75% patients [27]: Yes
Cavg > 300 ng/dL ≥80% patients [27]: Yes
Cavg > 300 ng/dL ≥75% patients [28]: No
Cavg > 300 ng/dL ≥80% patients [28]: No
Cavg > 300 ng/dL ≥75% patients [29]: No
Cavg > 300 ng/dL ≥80% patients [29]: No
Cavg > 300 ng/dL ≥75% patients [30]: No
Cavg > 300 ng/dL ≥80% patients [30]: No
Cavg > 300 ng/dL ≥75% patients [31]: Yes
Cavg > 300 ng/dL ≥80% patients [31]: No
Cavg > 300 ng/dL ≥75% patients [32]: Yes
Cavg > 300 ng/dL ≥80% patients [32]: Yes
Cavg > 300 ng/dL ≥75% patients [33]: No
Cavg > 300 ng/dL ≥80% patients [33]: No
Cavg > 300 ng/dL ≥75% patients [34]: Yes
Cavg > 300 ng/dL ≥80% patients [34]: Yes
Cavg > 300 ng/dL ≥75% patients [35]: Yes
Cavg > 300 ng/dL ≥80% patients [35]: Yes
US FDA T level targets for safety and efficacy (fixed dose regimen, 430 mg TU daily dose (215 mg BID-equal dose) to 480 mg TU daily dose (240 mg BID-equal dose), no titration): can satisfy US FDA T level targets for safety and efficacy without titration
